In patent US20260306429A1, “COMPOSITION FOR REDUCING METHANE PRODUCTION AND IMPROVING NITROGEN UTILIZATION EFFICIENCY OF RUMINANT ANIMALS COMPRISING HALOACETAMIDE AS ACTIVE INGREDIENT” (CHUNGANG UNIVERSITY INDUSTRY ACADEMIC COOPERATION FOUNDATION, priority 2024, published 2026):

Columns and labels:
[1] = tested on: Ruminococcus flavefaciens; assay: qPCR absolute quantification of Ruminococcus flavefaciens after in vitro rumen incubation; format: cell-based; details: 0.2 mmol/L, 24 h
Method: (§1) Rumen fluid was sampled from Hanwoo cows at the Nonghyup Research Farm in Anseong, Gyeonggi Province, and mixed with buffer at a ratio of 1:2 within 1 hour of sampling. Oat hay was used as the forage, and pelleted feed for the middle fattening period was used as the concentrate. After grinding, the forage and concentrate were mixed at a ratio of 1:1 after passing through a 1-mm screen. 50 ml of culture medium was dispensed into 0.5 g of dry matter, and the control group and the five experimental groups (acrylamide, chloroacetamide, glycolamide, iodoacetamide, and propionamide) were each incubated for 24 hours with five replicates. The control group was incubated in 50 mL of culture medium, whereas the experimental groups were incubated in 49.9 mL of culture medium plus 0.1 mL of deionized water. For the five experimental groups, the supplementation level of each amide was set to 0.2 mmol/L (final concentration), and the amounts added were 1.4216 mg/g for acrylamide, 1.8702 mg/g for 2-chloroacetamide, 1.4618 mg/g for propionamide, 1.5014 mg/g for glycolamide, and 3.6992 mg/g for iodoacetamide.
(§2) Gas pressure was measured at 0, 3, 6, 12, and 24 hours (gas collection intervals), and the gas released during each measurement was collected to determine the total gas production and methane production up to the final 24 hours. After completing the 24-hour incubation, pH, ammonia nitrogen (NH3—N), dry matter digestibility, neutral detergent fiber digestibility, volatile fatty acids (VFA), and the microbiome were analyzed.
(§3) Metagenomic DNA was extracted using the RBB+C method, followed by qPCR analysis and microbiome analysis. Microbial functions were predicted using PICRUSt2. Taxonomic drivers of differentially enriched MetaCyc pathways were identified using Fish Taco (Functional Shifts' Taxonomic Contributor).
(§4) Data conforming to normal distribution and homogeneity of variance were analyzed using the GLIMMIX procedure of SAS and Tukey's HSD test. […] Differences in the overall bacteriota and their functional profiles were analyzed using PERMANOVA. Differentially abundant microbial biomarkers were identified using multivariable association analysis with the MaAsLin2 R package, based on relatively abundant bacterial taxa and predicted microbial functions.
(§5) For the control group and the five experimental groups (acrylamide, chloroacetamide, glycolamide, iodoacetamide, and propionamide), the effects of the amide compounds on the absolute quantification of total bacteria, methanogens, protozoa, and specific cellulolytic bacterial species (Fibrobacter succinogenes, Ruminococcus flavefaciens, Ruminococcus albus, and Prevotella ruminicola) are presented in Table 3 below as quantitative real-time PCR data.

[2] = tested on: Fibrobacter succinogenes; assay: qPCR absolute quantification of Fibrobacter succinogenes after in vitro rumen incubation; format: cell-based; details: 0.2 mmol/L, 24 h
Method: as §1, §2, §3, §4, §5

[3] = tested on: Total methanogen; assay: qPCR absolute quantification of methanogens after in vitro rumen incubation; format: cell-based, rumen fluid of Hanwoo cows; details: 0.2 mmol/L, 24 h
Method: as §1, §2, §3, §4, §5

[4] = tested on: Prevotella ruminicola; assay: qPCR absolute quantification of Prevotella ruminicola after in vitro rumen incubation; format: cell-based; details: 0.2 mmol/L, 24 h
Method: as §1, §2, §3, §4, §5

[5] = tested on: rumen fluid; assay: In vitro incubation of rumen fluid: digestibility, fermentation characteristics, gas and methane production, VFA; format: cell-based, Hanwoo cows; details: 0.2 mmol/L; for A:P ratio (acetate:propionate ratio) / DMD (dry matter digestibility) / NDFD (neutral detergent fiber digestibility) / NH3—N (ammonia nitrogen) / pH / Acetate / Butyrate / Isobutyrate / Isovalerate / Propionate / Valerate / Total VFA (total volatile fatty acids): 24 h; for CH4 (methane production per gram of degraded dry matter) / CH4 (methane production) / TGP (total gas production): up to 24 h
Method: as §1, §2, §4

[6] = tested on: Total bacteria; assay: qPCR absolute quantification of total bacteria after in vitro rumen incubation; format: cell-based, rumen fluid of Hanwoo cows; details: 0.2 mmol/L, 24 h
Method: as §1, §2, §3, §4, §5

[7] = tested on: Ruminococcus albus; assay: qPCR absolute quantification of Ruminococcus albus after in vitro rumen incubation; format: cell-based; details: 0.2 mmol/L, 24 h
Method: as §1, §2, §3, §4, §5

[8] = tested on: Total protozoa; assay: qPCR absolute quantification of protozoa after in vitro rumen incubation; format: cell-based, rumen fluid of Hanwoo cows; details: 0.2 mmol/L, 24 h
Method: as §1, §2, §3, §4, §5

[9] = tested on: rumen microbiome; assay: Alpha-diversity measurements of the rumen microbiome; format: cell-based, rumen fluid of Hanwoo cows; details: 0.2 mmol/L, 24 h
Method: as §1, §2, §3, §4
The alpha-diversity measurements for the control group and the five experimental groups (acrylamide, chloroacetamide, glycolamide, iodoacetamide, and propionamide) are presented in Table 4 below.

SMILES	Ruminococcus flavefaciens (absolute quantification, qPCR) [1]	Fibrobacter succinogenes (absolute quantification, qPCR) [2]	Total methanogen (absolute quantification, qPCR) [3]	Prevotella ruminicola (absolute quantification, qPCR) [4]	A:P ratio (acetate:propionate ratio) [5]	DMD (dry matter digestibility) [5]	NDFD (neutral detergent fiber digestibility) [5]	NH3—N (ammonia nitrogen) [5]	pH [5]	Acetate ([5]; VFA composition)	Butyrate ([5]; VFA composition)	Isobutyrate ([5]; VFA composition)	Isovalerate ([5]; VFA composition)	Propionate ([5]; VFA composition)	Valerate ([5]; VFA composition)	Acetate ([5]; concentration)	Butyrate ([5]; concentration)	Isobutyrate ([5]; concentration)	Isovalerate ([5]; concentration)	Propionate ([5]; concentration)	also measured
C=CC(N)=O [AA, acrylamide]	8.31^B	9.39^C	8.38^A	9.44^C	3.03^A	78.14^AB %	42.04^B %	16.61^A mg/dL	6.21	61.85^A %	13.87^B %	0.88%	1.23^ABC %	20.42^C %	1.76^B %	43.81^A mM	9.82^AB mM	0.62^A mM	0.87^A mM	14.45^AB mM	Total VFA (total volatile fatty acids) ([5]; concentration): 70.82^A mM; Valerate ([5]; concentration): 1.24 mM; CH4 (methane production per gram of degraded dry matter) [5]: 29.06^A mL/g dDM; CH4 (methane production) [5]: 11.35^A mL; TGP (total gas production) [5]: 145.83^A mL; Total bacteria (absolute quantification, qPCR) [6]: 10.30^AB; Ruminococcus albus (absolute quantification, qPCR) [7]: 7.77^B; Total protozoa (absolute quantification, qPCR) [8]: 9.78; Chao1 [9]: 284.8^B; Evenness [9]: 0.8823^B; Observed features [9]: 284.8^B; Shannon [9]: 7.1896^B; Simpson [9]: 0.9883^B
NC(=O)CO [GA, glycolamide]	8.29^B	9.36^C	8.33^A	9.42^C	2.92^A	79.40^A %	40.82^B %	14.76^AB mg/dL	6.22	60.74^A %	14.30^B %	0.93%	1.32^A %	20.83^C %	1.88^AB %	37.24^ABC mM	8.74^B mM	0.57^AB mM	0.80^A mM	12.77^B mM	Total VFA (total volatile fatty acids) ([5]; concentration): 61.27^AB mM; Valerate ([5]; concentration): 1.15 mM; CH4 (methane production per gram of degraded dry matter) [5]: 26.85^B mL/g dDM; CH4 (methane production) [5]: 10.65^B mL; TGP (total gas production) [5]: 141.74^A mL; Total bacteria (absolute quantification, qPCR) [6]: 10.25^B; Ruminococcus albus (absolute quantification, qPCR) [7]: 7.71^B; Total protozoa (absolute quantification, qPCR) [8]: 9.69; Chao1 [9]: 436.4^AB; Evenness [9]: 0.8956^A; Observed features [9]: 435.6^AB; Shannon [9]: 7.8466^A; Simpson [9]: 0.9927^A
CCC(N)=O [PA, propionamide]	8.31^B	9.35^C	8.42^A	9.45^C	2.96^A	78.34^AB %	41.80^B %	16.50^A mg/dL	6.22	60.97^A %	14.31^B %	0.92%	1.30^AB %	20.64^C %	1.86^AB %	38.55^AB mM	9.04^AB mM	0.58^AB mM	0.82^A mM	13.04^B mM	Total VFA (total volatile fatty acids) ([5]; concentration): 63.20^AB mM; Valerate ([5]; concentration): 1.17 mM; CH4 (methane production per gram of degraded dry matter) [5]: 28.32^AB mL/g dDM; CH4 (methane production) [5]: 11.09^AB mL; TGP (total gas production) [5]: 143.63^A mL; Total bacteria (absolute quantification, qPCR) [6]: 10.27^B; Ruminococcus albus (absolute quantification, qPCR) [7]: 7.71^B; Total protozoa (absolute quantification, qPCR) [8]: 9.79; Chao1 [9]: 406.2^AB; Evenness [9]: 0.8873^AB; Observed features [9]: 405.6^AB; Shannon [9]: 7.6692^A; Simpson [9]: 0.9913^AB
